Experimental data published in patent US20150018384A1, “TREATMENT FOR HIGH CHOLESTEROL” (FibroGen, Inc., priority 2012, published 2015).
Entries after “also recorded” stand apart in the source; their conditions may differ.

Assays:
ApoE deficient mice [1] = assay: High cholesterol mouse model, ApoE deficient mice, 2 weeks; assay type: in vivo; settings: Compound 60 mg/kg three times a week for two weeks, n=10/group, FIG. 22
From the text: (§1) Ten-week-old male apoE knockout mice (Jackson Laboratories, Bar Harbor, Me.) were fed a normal chow diet (0.02% cholesterol, 13.5% fat by weight; LabDiet). […] After 2 weeks of acclimatization, whole blood was collected for baseline measurement before administration of test reagents. […] The animals were sacrificed at end of study.
ApoE deficient mice as described in Example 10 were used to test the effect of various compounds on cholesterol levels. […] A statin compound (rosuvastatin) was also tested. Blood samples were collected at the end of the study and total cholesterol blood levels were tested. A group of 10 mice was sacrificed at the beginning of the study for a baseline total cholesterol measurement. […] Typically statins show mixed results in this model and are not very effective to reduce cholesterol in mice (Bea et al. 2003 Atherosclerosis 167:187-194).

[2] = test system: genes involved in cholesterol biosynthesis in DIO mice liver; assay: Microarray expression of cholesterol biosynthesis genes in liver of DIO mice; assay type: in vivo, mouse; settings: 60 mg/kg three times a week, 4 weeks of dosing, relative to vehicle treated mice
Description: (§2) A number of PHI compounds were evaluated for their effect on the expression of cholesterol biosynthesis genes in mouse liver. […] Liver tissue was harvested and stored in RNALater (Life Technologies). Total RNA was isolated with Trizol (Life Technologies) and purified with RNEasy96 (Qiagen) according to the manufacturers' protocols. RNA concentration was measured by NanoDrop (Thermo), and quality was assessed by Bioanalyzer (Agilent).
(§3) Biotinylated microarray probe was prepared using the 3′IVT Express kit (Affymetrix) and hybridized to mouse 430A 2.0 arrays as recommended in the manufacturer's protocol. Arrays were stained, washed, and scanned using Affymetrix equipment and software. Three arrays were run for each treatment and time point, each representing the liver sample from one individual animal.
(§4) For microarray analysis, RNA from animals in each treatment group was pooled in pairs (n=3 pairs for 4 h vehicle, n=2 pairs for all other treatment groups, for a total of 13 arrays per compound study). This approach was used to improve the signal-to-noise ratio on microarrays. Biotinylated probe was prepared using the One-Cycle cDNA synthesis kit (Affymetrix) and hybridized to mouse 430A 2.0 arrays as recommended in the manufacturer's protocol. Arrays were stained, washed, and scanned using Affymetrix equipment and software.
(§5) Array quality was assessed with GeneChip Operating System and/or Command Console software (Affymetrix). CEL files were uploaded to GeneSpring 7.3.1 (Agilent) using GC-RMA baseline correction. Principal Components Analysis was used to identify and reject outlier arrays. Data are reported as fold-change compared to timepoint-matched vehicle controls from the same study. Values less than 1.0 indicate a reduction of RNA in the treated animal liver tissue.
Liver tissue was collected as described in Example 6 from DIO mice at the end of the study (4 weeks of dosing) described in Example 12. RNA isolation and microarray analysis were carried out as described in Example 6. The expression of 16 genes involved in cholesterol biosynthesis in mice treated with Compound B, Compound E, or Compound D, relative to that in the vehicle treated mice, is shown in Table 7.

cynomolgus monkeys [3] = assay: Lipid panel in monkeys after single IV or PO dose; assay type: in vivo, cynomolgus monkey; settings: 30 mg/kg IV or PO (3 each, 6 monkeys), 24 hrs post-dose, ±SD
Description: The same monkeys were administered the test compounds in sequence with a washout period between administration of each compound. Monkeys were fasted overnight prior to dosing and food was withheld during the first 4 hours after dosing and food was then allowed. Blood samples were collected at baseline prior to dosing, 4, 12, 24, 48 and 72 hrs after HIF-PHI administration. […] There were a total of 6 monkeys in each dose group, 3 that were dosed PO and 3 dosed IV.

[4] = test system: Cholesterol Biosynthesis Genes in the Mouse Liver; assay: Microarray expression of cholesterol biosynthesis genes in mouse liver; assay type: in vivo; settings: 10 mg/kg oral
Description: as §2, §3
Animals were sacrificed 4 h or 8 h later. Each compound was tested in a separate animal study with separate controls. Liver tissue was harvested and stored in RNALater (Life Technologies). Total RNA was isolated with Trizol (Life Technologies) and purified with RNEasy96 (Qiagen) according to the manufacturers' protocols. RNA concentration was measured by NanoDrop (Thermo), and quality was assessed by Bioanalyzer (Agilent).
as §4, §5

DIO mice = assay: High cholesterol mouse model, diet induced obesity (DIO) mice; settings: 60 mg/kg three times a week for four weeks
From the text: Ten-week-old male apoE knockout mice (Jackson Laboratories, Bar Harbor, Me.) were fed a normal chow diet (0.02% cholesterol, 13.5% fat by weight; LabDiet). Ten-week-old male diet induced obese mice (DIO Mice, Jackson Laboratories, Bar Harbor, Me.) were fed a high fat diet (0.095% cholesterol, 60% fat by weight; ResearchDiets) starting at six-weeks-old. After 2 weeks of acclimatization, whole blood was collected for baseline measurement before administration of test reagents. All test reagents were administered orally by gavage needle three times a week for 2 weeks for the apoE mice, and three times a week for 4 weeks for the DIO mice. The animals were sacrificed at end of study. Whole blood was collected weekly in Heparin-tube by submandibular bleeding and isolated plasma was stored at −80° C. for measurement of total cholesterol.
DIO mice as described in Example 10 were used to test the effect of various compounds on cholesterol levels. Compound (60 mg/kg) or vehicle was administered to the mice (n=10/group) three times a week for four weeks. A statin compound (rosuvastatin) was also tested. Blood samples were collected at weekly and total cholesterol blood levels were tested.

cynomolgus monkeys [5] = assay: Cholesterol levels after repeated oral administration in monkey toxicity studies; assay type: in vivo, cynomolgus monkey; settings: 28-Day study, daily oral dosing 1, 10 and 30 mg/kg, day 28
Description: During these studies monkeys were fasted prior to each blood collection. Plasma samples were then evaluated at pre-dose and at different time-points for levels of total cholesterol.

ApoE deficient mice [6] = assay: Cholesterol reduction and erythrogenesis in ApoE deficient mice, 4 weeks; assay type: in vivo, mouse; settings: orally 2, 20, 60 or 100 mg/kg three times a week for 4 weeks, n=8/group
Description: as §1
Total cholesterol and hemoglobin were measured weekly.

O=C(O)CNC(=O)c1nc(Cl)c2ccccc2c1O [Compound B, [(1-Chloro-4-hydroxy-isoquinoline-3-carbonyl)-amino]-acetic acid]
total cholesterol levels at the end of the study compared to baseline (ApoE deficient mice [1]): trend towards lower total cholesterol
3-hydroxy-3-methylglutaryl-Coenzyme A reductase (Hmgcr) expression [2]: 0.20
3-hydroxy-3-methylglutaryl-Coenzyme A synthase 1 (Hmgcs1) expression [2]: 0.15
7-dehydrocholesterol reductase (Dhcr7) expression [2]: 0.43
NAD(P) dependent steroid dehydrogenase-like (Nsdhl) expression [2]: 0.34
acetyl-Coenzyme A acetyltransferase 2 (Acat2) expression [2]: 0.43
cytochrome P450, family 51 (Cyp51) expression [2]: 0.18
farnesyl diphosphate farnesyl transferase 1 (Fdft1) expression [2]: 0.30
farnesyl diphosphate synthetase (Fdps) expression [2]: 0.26
isopentenyl-diphosphate delta isomerase (Idi1) expression [2]: 0.23
lanosterol synthase (Lss) expression [2]: 0.38
mevalonate (diphospho) decarboxylase (Mvd) expression [2]: 0.20
mevalonate kinase (Mvk) expression [2]: 0.54
phosphomevalonate kinase (Pmvk) expression [2]: 0.48
squalene epoxidase (Sqle) expression [2]: 0.21
sterol-C4-methyl oxidase-like (Sc4mol) expression [2]: 0.13
sterol-C5-desaturase (fungal ERG3, delta-5-desaturase) homolog (S. cerevisae) (Sc5d) expression [2]: 0.30

N#Cc1nc(C(=O)NCC(=O)O)c(O)c2ccn(Cc3ccccc3F)c12 [Compound G, {[7-Cyano-1-(2-fluoro-benzyl)-4-hydroxy-1H-pyrrolo[2,3-c]pyridine-5-carbonyl]-amino}-acetic acid]
Cholesterol change from baseline (cynomolgus monkeys [3]): -6.5 ± 10.4 mg/dL
HDL change from baseline (cynomolgus monkeys [3]): 0.17 ± 5.4 mg/dL
LDL change from baseline (cynomolgus monkeys [3]): -8.7 ± 5.9 mg/dL
LDL/HDL ratio change from baseline (cynomolgus monkeys [3]): −0.13 ± 0.08
TGs change from baseline (cynomolgus monkeys [3]): -23 ± 8 mg/dL
3-hydroxy-3-methylglutaryl-Coenzyme A reductase (Hmgcr) RNA expression ([4]; 4 h): 0.68 fold-change
3-hydroxy-3-methylglutaryl-Coenzyme A synthase 1 (Hmgcs1) RNA expression ([4]; 4 h): 1.29 fold-change
7-dehydrocholesterol reductase (Dhcr7) RNA expression ([4]; 4 h): 0.91 fold-change
NAD(P) dependent steroid dehydrogenase-like (Nsdhl) RNA expression ([4]; 4 h): 1.46 fold-change
acetyl-Coenzyme A acetyltransferase 2 (Acat2) RNA expression ([4]; 4 h): 1.18 fold-change
cytochrome P450, family 51 (Cyp51) RNA expression ([4]; 4 h): 1.00 fold-change
farnesyl diphosphate farnesyl transferase 1 (Fdft1) RNA expression ([4]; 4 h): 1.15 fold-change
farnesyl diphosphate synthetase (Fdps) RNA expression ([4]; 4 h): 1.16 fold-change
isopentenyl-diphosphate delta isomerase (Idi1) RNA expression ([4]; 4 h): 1.13 fold-change
lanosterol synthase (Lss) RNA expression ([4]; 4 h): 1.22 fold-change
mevalonate (diphospho) decarboxylase (Mvd) RNA expression ([4]; 4 h): 1.03 fold-change
mevalonate kinase (Mvk) RNA expression ([4]; 4 h): 0.98 fold-change
phosphomevalonate kinase (Pmvk) RNA expression ([4]; 4 h): 0.95 fold-change
squalene epoxidase (Sqle) RNA expression ([4]; 4 h): 1.50 fold-change
sterol-C4-methyl oxidase-like (Sc4mol) RNA expression ([4]; 4 h): 0.87 fold-change
sterol-C5-desaturase (fungal ERG3, delta-5-desaturase) homolog (S. cerevisae) (Sc5d) RNA expression ([4]; 4 h): 0.70 fold-change
3-hydroxy-3-methylglutaryl-Coenzyme A reductase (Hmgcr) RNA expression ([4]; 8 h): 0.66 fold-change
3-hydroxy-3-methylglutaryl-Coenzyme A synthase 1 (Hmgcs1) RNA expression ([4]; 8 h): 0.82 fold-change
7-dehydrocholesterol reductase (Dhcr7) RNA expression ([4]; 8 h): 1.07 fold-change
NAD(P) dependent steroid dehydrogenase-like (Nsdhl) RNA expression ([4]; 8 h): 1.00 fold-change
acetyl-Coenzyme A acetyltransferase 2 (Acat2) RNA expression ([4]; 8 h): 0.67 fold-change
cytochrome P450, family 51 (Cyp51) RNA expression ([4]; 8 h): 0.62 fold-change
farnesyl diphosphate farnesyl transferase 1 (Fdft1) RNA expression ([4]; 8 h): 0.98 fold-change
farnesyl diphosphate synthetase (Fdps) RNA expression ([4]; 8 h): 0.73 fold-change
isopentenyl-diphosphate delta isomerase (Idi1) RNA expression ([4]; 8 h): 0.94 fold-change
lanosterol synthase (Lss) RNA expression ([4]; 8 h): 0.87 fold-change
mevalonate (diphospho) decarboxylase (Mvd) RNA expression ([4]; 8 h): 1.03 fold-change
mevalonate kinase (Mvk) RNA expression ([4]; 8 h): 0.89 fold-change
phosphomevalonate kinase (Pmvk) RNA expression ([4]; 8 h): 0.70 fold-change
squalene epoxidase (Sqle) RNA expression ([4]; 8 h): 1.22 fold-change
sterol-C4-methyl oxidase-like (Sc4mol) RNA expression ([4]; 8 h): 0.58 fold-change
sterol-C5-desaturase (fungal ERG3, delta-5-desaturase) homolog (S. cerevisae) (Sc5d) RNA expression ([4]; 8 h): 0.48 fold-change
body weights at the end of the study (DIO mice): lower body weights

COc1ccc(Oc2ccc3c(O)c(C(=O)NCC(=O)O)ncc3c2)cc1 [Compound D, {[4-Hydroxy-7-(4-methoxy-phenoxy)-isoquinoline-3-carbonyl]-amino}-acetic acid]
total cholesterol levels (cynomolgus monkeys [5]): dose-dependent decrease in cholesterol levels
total cholesterol levels (cynomolgus monkeys [5]; listed as compound D): dose dependent decrease in total cholesterol
total cholesterol levels at the end of the study compared to baseline (ApoE deficient mice [1]): significantly decreased cholesterol levels
3-hydroxy-3-methylglutaryl-Coenzyme A reductase (Hmgcr) expression [2]: 0.47
3-hydroxy-3-methylglutaryl-Coenzyme A synthase 1 (Hmgcs1) expression [2]: 0.42
7-dehydrocholesterol reductase (Dhcr7) expression [2]: 0.76
NAD(P) dependent steroid dehydrogenase-like (Nsdhl) expression [2]: 1.02
acetyl-Coenzyme A acetyltransferase 2 (Acat2) expression [2]: 0.72
cytochrome P450, family 51 (Cyp51) expression [2]: 0.55
farnesyl diphosphate farnesyl transferase 1 (Fdft1) expression [2]: 0.44
farnesyl diphosphate synthetase (Fdps) expression [2]: 0.92
isopentenyl-diphosphate delta isomerase (Idi1) expression [2]: 0.67
lanosterol synthase (Lss) expression [2]: 0.70
mevalonate (diphospho) decarboxylase (Mvd) expression [2]: 0.43
mevalonate kinase (Mvk) expression [2]: 0.77
phosphomevalonate kinase (Pmvk) expression [2]: 1.14
squalene epoxidase (Sqle) expression [2]: 0.89
sterol-C4-methyl oxidase-like (Sc4mol) expression [2]: 0.38
sterol-C5-desaturase (fungal ERG3, delta-5-desaturase) homolog (S. cerevisae) (Sc5d) expression [2]: 0.42
hemoglobin compared to vehicle-treated (ApoE deficient mice [6]): did not significantly increase hemoglobin at any of the tested doses; also recorded: did not show a significant increase in hemoglobin at any of the doses tested
total cholesterol (% change from baseline) compared to vehicle-treated (ApoE deficient mice [6]): lower total cholesterol levels; also recorded: significant percent change in total cholesterol from baseline for the 20 mg/kg, 60 mg/kg, and 100 mg/kg doses
